Values of other authors, collected in patent US6245797A, “Combination therapy for reducing the risks associated with cardio-and-cerebrovascular disease” (Merck & Co., Inc., priority 1998, dated 2001).

Details: Scandinavian Simvastatin Survival Study, over the course of the 5 year study

## CCC(C)(C)C(=O)O[C@H]1C[C@@H](C)C=C2C=C[C@H](C)[C@H](CC[C@@H]3C[C@@H](O)CC(=O)O3)[C@H]21 [simvastatin]
  treated patients who die of their disease: 5%
